Measured values taken from a melting point compilation (Tetko et al.; mined from patent text by program, amines drawn as free bases though some values may be those of a salt).

Compound	melting point [°C]
CC[C@H]1[C@@H](O)C(F)(F)C(=O)N1c1ccc(C#N)c(OC)c1	161 to 164
CCCCCCCCNCC(O)COc1ccc(SC)cc1C (stereo not drawn)	59 to 60
CC(C)(C)OC(=O)COc1ccc([N+](=O)[O-])cc1F	62 to 64
CCc1ccc2c(c1)C=Cc1cc(C)ccc1C2c1cn(-c2ccnc(N3CC(C(=O)Nc4nc(CC(=O)O)cs4)C3)n2)c(=O)[nH]c1=O (stereo not drawn)	235
N#CC1(c2ccccc2)CCN(Cc2ccccc2)CC1	73 to 74
CC1(C)CC(=O)C1(Br)CC(Cl)(Cl)Cl (stereo not drawn)	46 to 49
CN(C(=O)C1CC1)c1cccc(-c2ccnc3c(C(=O)c4ccco4)cnn23)c1	207 to 209
N#Cc1cc(C(=O)CCl)cs1	94 to 98
OCCOc1cccc2c1OCO2	56 to 57
CCSc1cc2c(cc1SCC)C(=O)c1c(c(Cl)c3cc(SCC)c(SCC)cc3c1Cl)C2=O	> 260
CC(=O)c1ccc(C#Cc2ccc(C(C)=O)s2)s1	214
CCOC(=O)C(=CNc1sc(Cl)cc1C(=O)OC)C(=O)OCC	89.5 to 90.5
CCCCCS(=O)(=O)NCC(C)Cc1ccc(OCCOC)cc1Oc1ncc(C(F)(F)F)cc1Cl (stereo not drawn)	80 to 82
C=CCc1ccccc1OC[C@@H](O)CNCCc1ccc(NC2CCN(C(=O)NCCCCCCCC)CC2)cc1	73 to 80
CC(Cl)(Cl)C(NC(=O)c1cccs1)NC(=NC#N)Nc1ccc(Cl)nc1 (stereo not drawn)	201 to 203
CCCS(=O)(=O)NCC1CC2C=CC1C2 (stereo not drawn)	51 to 52

Compound	melting point [°C]
Cc1cnc(-c2ccncc2)nc1N	210 to 213
CCOC(=O)c1cnn2c1nc(N1CCCCC1)c1cnc3c(cnn3CC)c12	183 to 184
CS(=O)(=O)c1cccc(C(=O)O)c1O	180
COC(=O)NCCCCC(NC(=O)OC)C(=O)OC (stereo not drawn)	187 to 189
Cn1cnc2c1c(=O)n(CCCN1CCN(c3ccc(Cl)nn3)CC1)c(=O)n2C	285 to 287
CCC(=O)NCC1CC1c1cccc2nc(C)nn12 (stereo not drawn)	118 to 119
CCCC1CCC(C2CCC(C3CCC(C(=O)OC)C(=O)C3)CC2)CC1 (stereo not drawn)	154
C#CC1(O)CCC2C3CCC4=CC(=O)CCC4C3C(=CF)CC21C (stereo not drawn)	188 to 190
CC(C)Nc1nc2cc(F)c(F)cc2n1[C@H]1O[C@@H](CO)[C@H](O)[C@@H]1O	156 to 158
CC1(C)C(C=CC(=O)OC2CC2)C1C(=O)OC(C#N)c1cccc(Oc2ccccc2)c1 (stereo not drawn)	62
CC1OC1C1CC(O)C2(C)CCC3C(CCC4CC(OC5CCCCO5)CC(C)C43C)C12 (stereo not drawn)	172 to 174
CC(C)(O)Cn1cnc2c(N)nc3cc(CCC(=O)N4CCOCC4)ccc3c21	217 to 218
C(#CCN(Cc1ccccc1)Cc1ccccc1)CN(Cc1ccccc1)Cc1ccccc1	105 to 106
CN1CC(Cn2cncn2)CC2c3cccc4[nH]cc(c34)CC21 (stereo not drawn)	245 to 253
CCOC(=O)CNc1c(N)c(=O)c1=O	231 to 233
CCCn1nc(C(C)C)c(C(=O)OCOC(C)=O)c1Cc1ccc(-c2ccccc2-c2nnn(C(c3ccccc3)(c3ccccc3)c3ccccc3)n2)cc1	124 to 128

Now from value to compound:

melting point [°C]	Compound
65 to 67	O=S(=O)(Cc1ccccc1)On1nnc2ccccc21
48 to 50	COC(=O)c1cc(OC)c2ccccc2c1OC
291 to 295	O=C(O)c1cccc(Nc2nccc(-c3cccnc3)n2)c1
165	NCC1CCN(c2ncc3ncnc(Nc4ccc(F)c(Cl)c4)c3n2)CC1
257 to 258	CC(C)(C)c1ccc(Nc2ncc(-c3ccnc(Cl)n3)c3ccccc23)cc1
131 to 132	CC1CC(c2ncc3nccc-3[nH]2)C(C)C(c2ccccc2)N1 (stereo not drawn)
135 to 140	N#Cc1cc(C(=O)NNC(=O)c2occc2-c2ccccc2O)ccc1O
156 to 158	Clc1cnc2c(COCn3cncn3)c(Cl)ccc2c1
158	CNC(=O)c1cccc(NC(=O)CCc2ccc(O)cc2)c1
134	CN(Cc1cc(-c2ccc(CC3SC(=O)NC3=O)cc2)cs1)C(=O)c1ccccc1 (stereo not drawn)
270 to 271	CCn1c(=O)c2[nH]c(/C=C/c3ccc(OCOC)cc3)nc2n(CC)c1=O
172 to 173	CC(=O)Nc1cccc(C=C2C(=O)c3ccccc3OC2c2ccccc2)c1 (stereo not drawn)
102 to 103	C#CCOc1cc(-c2ncc(C(F)(F)F)cc2Cl)ccc1Cl
205 to 207	Cc1nccn1C(=O)Nc1ccccc1
131 to 132	CC(C)C(=O)ON(C(=O)NN(C)C)C1c2ccccc2Oc2ccccc21
143 to 145	CCc1ccc2nnc(C(=O)Oc3ccccc3)cc2c1
280 to 282	CS(=O)(=O)Cc1cnc2ccccc2c1O
171	CCn1cc(-c2ccccc2)c(=O)c(-c2ccccc2)c1
194 to 198	COC(=O)c1ccc2c(C(C(=O)O)c3ccc4c(c3)OCO4)cn(C)c2c1 (stereo not drawn)
104 to 106	CCN1CCC(OC)(c2cccc(F)c2F)C1 (single isomer, unassigned; (+))
214 to 216	Cn1cc(C(=O)NCc2ccc(F)cc2)c(=O)c2cc(CN3CCOCC3)sc21

melting point [°C]	Compound
65 to 68	COC(=O)c1ccc2c(Br)cccc2c1
180 to 183	O=C1NC(=Cc2ccccc2F)C(=O)N1c1cc(F)ccc1F
181 to 184	OCC1(c2c[nH]cn2)Cc2ccccc2C1
141	Cc1nc(CC2CCN(c3ccccc3)CC2)nc(C(=O)NCC(=O)O)c1O
204 to 206	CC1=C(CC(=O)O)c2cc(F)ccc2C1=Cc1ccc(S(C)(=O)=O)cc1
96.7 to 97.5	CC(C)=CCCC(C)=CCOc1ccc(C(=O)NCCSc2ccc(C(F)(F)F)cn2)cc1
83	COc1cccc(C=C2c3ccccc3CCc3ccccc32)c1
170 to 172	CN1CCN(c2ccc([N+](=O)[O-])c(CS(=O)(=O)c3ccccc3)n2)CC1
74 to 76	CCN1C(=O)C(=C(O)Cc2ccccc2)SC1=S
58 to 60	O=C1CCOc2ccc(Oc3ccccc3)cc21
37	COc1cccc(C#CC#Cc2cc(C(F)(F)F)ccc2C(F)(F)F)c1
326 to 329	CN1CCN(c2ccc3c4c(cccc24)C(=O)N(O)C3=O)CC1
124	O=c1cc(-c2ccccc2)oc2cccc(OCCO)c12
132 to 134	Cc1[nH]c2ccccc2c1CCCN1CCC(O)(Cc2ccccc2)CC1
> 260	O=C1CCC2=C1C(c1ccc(Br)c(Br)c1)C1=C(CCS1)N2 (stereo not drawn)
205 to 206	NC(=O)Cc1ccc2c(c1)CCc1ccccc1O2
144 to 147	CC(C)(C)OC(=O)N1CCC(c2nc3cc(-c4ccc(S(C)(=O)=O)cc4F)ccc3o2)CC1
168 to 169	CC(C)(C)CCc1ccc(C(=O)NNS(=O)(=O)c2ccccc2)cc1
124 to 126	CN(Cc1cccc2ccccc12)c1nc(N2CCC(N(C)C)CC2)nc2c(N3CCOCC3)ncnc12
143 to 145	COc1ccc(C(C#Cc2ccccc2)CNC(=O)C(F)(F)F)cc1OC1CCCC1 (racemic)
